TGI data for 15 compounds are collected here from PubChem BioAssay (NCI).

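Compound exposure: 48 hours, 5 concentrations, 96-well plates. At the TGI there is no net growth.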

One may read the TGI as the concentration at which net growth stops. Read a low TGI as more potent growth arrest.

In the first test the test system is UACC-257 melanoma. Kind of test: DTP human tumour cell line panel, 48 h.
Regarding `COc1ccc(C(=O)/C=C/c2ccncc2)cc1OC`, the TGI stood at 25.5 µM.

Consider `Cc1ccc(C(=O)N/N=C(\N=Nc2ccccc2[N+](=O)[O-])c2ccc(N(C)C)cc2)cc1`, for which the TGI is > 100 µM.

As for `CC1C[C@]2(C)C(=O)Nc3ccccc3[C@@H]2Nc2ccccc21` (some centres undefined), the TGI was 39.5 µM.

Take `CC(C)C1=C(Cc2ccccc2)C(=O)O/C1=C\c1cc(Cl)c(O)c(Cl)c1`: the TGI came out at 32.2 µM.

Take `O=S(=O)(O)c1ccc(N=Nc2ccc(N=Nc3c(O)ccc4ccccc34)cc2)cc1`: the TGI is > 100 µM.

The test system of the next test is SW-620 colon. Description: DTP human tumour cell line panel, 48 h.
Take `CC(CCC#N)(CCC#N)C(=O)CC(O)(C(F)(F)F)C(F)(F)F`: the TGI was found to be 6.9 µM.

For the compound `CC(C)(C)[Si](C)(C)OC1/C(=C/C#N)C(n2ccc(=O)[nH]c2=O)OC1CO` (centres undefined), the TGI was > 100 µM.

On to `CC(=O)Nc1ccc2cc(C)c(=O)[nH]c2n1`, for which the TGI is > 100 µM.

For the compound `Nc1nc2c(ncn2Cc2ccc(CO)cc2)c(=O)[nH]1`, the TGI is > 100 µM.

`O=C(NS(=O)(=O)OCC(Cl)(Cl)Cl)SCCC(F)(F)C(F)(F)C(F)(F)C(F)(F)C(F)(F)C(F)(F)F` came in with a TGI of 38.3 µM.

Regarding `Cc1cc(C)nc(NS(=O)(=O)c2ccc(NNC(=O)c3cccc4c(=O)c5ccccc5[nH]c34)cc2)n1`, the TGI is > 100 µM.

In turn, `CN1CCN(CN2C(=O)C3C4C=CC(C3C2=O)C2C(=O)N(CN3CCN(C)CC3)C(=O)C42)CC1` (centres undefined) showed a TGI of 7.58 µM.

Compound `Cc1ccc(NC(=S)NNC(=O)c2cc(-c3ccccc3)nc3ccccc23)cc1` displayed a TGI of 25.9 µM.

`O=C(O)c1cccnc1`: the TGI is > 100 µM.

Consider `Cc1cn(CCCCCOC(=O)NC(CCCN=C(N)N)C(=O)O)c(=O)[nH]c1=O` (centres undefined), for which the TGI is > 100 µM.

Regarding `Cc1ccc(C(=O)N/N=C(\N=Nc2ccccc2[N+](=O)[O-])c2ccc(N(C)C)cc2)cc1`, the TGI was > 100 µM.

For the compound `CC1C[C@]2(C)C(=O)Nc3ccccc3[C@@H]2Nc2ccccc21` (some centres undefined), the TGI is > 100 µM.

Consider `CC(C)C1=C(Cc2ccccc2)C(=O)O/C1=C\c1cc(Cl)c(O)c(Cl)c1`, for which the TGI was 44.6 µM.

As to `O=S(=O)(O)c1ccc(N=Nc2ccc(N=Nc3c(O)ccc4ccccc34)cc2)cc1`, the TGI is > 100 µM.

The test system of another test is OVCAR-5 ovarian. Kind of test: DTP human tumour cell line panel, 48 h.
On to `CC(CCC#N)(CCC#N)C(=O)CC(O)(C(F)(F)F)C(F)(F)F`, for which the TGI was 32.4 µM.

For the compound `CC(C)(C)[Si](C)(C)OC1/C(=C/C#N)C(n2ccc(=O)[nH]c2=O)OC1CO` (centres undefined), the TGI is > 100 µM.

For `CC(=O)Nc1ccc2cc(C)c(=O)[nH]c2n1`, the TGI was > 100 µM.

On to `Nc1nc2c(ncn2Cc2ccc(CO)cc2)c(=O)[nH]1`, for which the TGI is > 100 µM.

As for `O=C(NS(=O)(=O)OCC(Cl)(Cl)Cl)SCCC(F)(F)C(F)(F)C(F)(F)C(F)(F)C(F)(F)C(F)(F)F`, the TGI stood at 34.6 µM.

Take `Cc1cc(C)nc(NS(=O)(=O)c2ccc(NNC(=O)c3cccc4c(=O)c5ccccc5[nH]c34)cc2)n1`: the TGI is > 100 µM.

In the case of `CN1CCN(CN2C(=O)C3C4C=CC(C3C2=O)C2C(=O)N(CN3CCN(C)CC3)C(=O)C42)CC1` (centres undefined), the TGI is > 100 µM.

For the compound `Cc1ccc(NC(=S)NNC(=O)c2cc(-c3ccccc3)nc3ccccc23)cc1`, the TGI came out at 31.3 µM.

With `O=C(O)c1cccnc1`, the TGI was > 100 µM.

For the compound `Cc1cn(CCCCCOC(=O)NC(CCCN=C(N)N)C(=O)O)c(=O)[nH]c1=O` (centres undefined), the TGI was > 100 µM.

`COc1ccc(C(=O)/C=C/c2ccncc2)cc1OC` gave a TGI of 27.3 µM.

With `Cc1ccc(C(=O)N/N=C(\N=Nc2ccccc2[N+](=O)[O-])c2ccc(N(C)C)cc2)cc1`, the TGI was > 100 µM.

As to `CC1C[C@]2(C)C(=O)Nc3ccccc3[C@@H]2Nc2ccccc21` (some centres undefined), the TGI was > 100 µM.

Consider `CC(C)C1=C(Cc2ccccc2)C(=O)O/C1=C\c1cc(Cl)c(O)c(Cl)c1`, for which the total growth inhibition concentration (TGI) stood at 43.7 µM.

`O=S(=O)(O)c1ccc(N=Nc2ccc(N=Nc3c(O)ccc4ccccc34)cc2)cc1`: the TGI was > 100 µM.

In the next test the test system is K-562 leukemia. Kind of test: DTP human tumour cell line panel, 48 h.
In the case of `CC(CCC#N)(CCC#N)C(=O)CC(O)(C(F)(F)F)C(F)(F)F`, the TGI stood at 5.87 µM.

As for `CC(C)(C)[Si](C)(C)OC1/C(=C/C#N)C(n2ccc(=O)[nH]c2=O)OC1CO` (centres undefined), the TGI is > 100 µM.

With `CC(=O)Nc1ccc2cc(C)c(=O)[nH]c2n1`, the TGI is > 100 µM.

Consider `Nc1nc2c(ncn2Cc2ccc(CO)cc2)c(=O)[nH]1`, for which the TGI is > 100 µM.

On to `O=C(NS(=O)(=O)OCC(Cl)(Cl)Cl)SCCC(F)(F)C(F)(F)C(F)(F)C(F)(F)C(F)(F)C(F)(F)F`, for which the TGI was > 100 µM.

Regarding `Cc1cc(C)nc(NS(=O)(=O)c2ccc(NNC(=O)c3cccc4c(=O)c5ccccc5[nH]c34)cc2)n1`, the TGI was > 100 µM.

Take `CN1CCN(CN2C(=O)C3C4C=CC(C3C2=O)C2C(=O)N(CN3CCN(C)CC3)C(=O)C42)CC1` (centres undefined): the TGI is > 100 µM.

Turning to `Cc1ccc(NC(=S)NNC(=O)c2cc(-c3ccccc3)nc3ccccc23)cc1`, the TGI was > 100 µM.

`O=C(O)c1cccnc1`: the TGI is > 100 µM.

For the compound `Cc1cn(CCCCCOC(=O)NC(CCCN=C(N)N)C(=O)O)c(=O)[nH]c1=O` (centres undefined), the TGI is > 100 µM.

`COc1ccc(C(=O)/C=C/c2ccncc2)cc1OC` returned a TGI of 6.11 µM.

Regarding `Cc1ccc(C(=O)N/N=C(\N=Nc2ccccc2[N+](=O)[O-])c2ccc(N(C)C)cc2)cc1`, the TGI was > 100 µM.

Turning to `CC1C[C@]2(C)C(=O)Nc3ccccc3[C@@H]2Nc2ccccc21` (some centres undefined), the total growth inhibition concentration (TGI) was > 100 µM.

In the case of `CC(C)C1=C(Cc2ccccc2)C(=O)O/C1=C\c1cc(Cl)c(O)c(Cl)c1`, the TGI was 40.5 µM.

Regarding `O=S(=O)(O)c1ccc(N=Nc2ccc(N=Nc3c(O)ccc4ccccc34)cc2)cc1`, the TGI is > 100 µM.

The test system of the next test is TK-10 renal. Description: DTP human tumour cell line panel, 48 h.
The compound `CC(CCC#N)(CCC#N)C(=O)CC(O)(C(F)(F)F)C(F)(F)F` showed a TGI of 25.1 µM.

Regarding `CC(C)(C)[Si](C)(C)OC1/C(=C/C#N)C(n2ccc(=O)[nH]c2=O)OC1CO` (centres undefined), the TGI is > 100 µM.

In the case of `CC(=O)Nc1ccc2cc(C)c(=O)[nH]c2n1`, the TGI was > 100 µM.

With `Nc1nc2c(ncn2Cc2ccc(CO)cc2)c(=O)[nH]1`, the TGI is > 100 µM.

In turn, `O=C(NS(=O)(=O)OCC(Cl)(Cl)Cl)SCCC(F)(F)C(F)(F)C(F)(F)C(F)(F)C(F)(F)C(F)(F)F` came in with a TGI of 62.6 µM.

Regarding `Cc1cc(C)nc(NS(=O)(=O)c2ccc(NNC(=O)c3cccc4c(=O)c5ccccc5[nH]c34)cc2)n1`, the TGI is > 100 µM.

Consider `CN1CCN(CN2C(=O)C3C4C=CC(C3C2=O)C2C(=O)N(CN3CCN(C)CC3)C(=O)C42)CC1` (centres undefined), for which the TGI is > 100 µM.

For the compound `Cc1ccc(NC(=S)NNC(=O)c2cc(-c3ccccc3)nc3ccccc23)cc1`, the TGI turned out to be 29.1 µM.

Take `O=C(O)c1cccnc1`: the TGI is > 100 µM.

Take `Cc1cn(CCCCCOC(=O)NC(CCCN=C(N)N)C(=O)O)c(=O)[nH]c1=O` (centres undefined): the TGI is > 100 µM.

`COc1ccc(C(=O)/C=C/c2ccncc2)cc1OC` yielded a TGI of 30 µM.

As to `Cc1ccc(C(=O)N/N=C(\N=Nc2ccccc2[N+](=O)[O-])c2ccc(N(C)C)cc2)cc1`, the TGI is > 100 µM.

For the compound `CC1C[C@]2(C)C(=O)Nc3ccccc3[C@@H]2Nc2ccccc21` (some centres undefined), the TGI worked out at 58 µM.

In turn, `CC(C)C1=C(Cc2ccccc2)C(=O)O/C1=C\c1cc(Cl)c(O)c(Cl)c1` showed a TGI of 55.1 µM.

Consider `O=S(=O)(O)c1ccc(N=Nc2ccc(N=Nc3c(O)ccc4ccccc34)cc2)cc1`, for which the TGI was > 100 µM.

In the next test the test system is SF-295 CNS. Description: DTP human tumour cell line panel, 48 h.
On to `CC(CCC#N)(CCC#N)C(=O)CC(O)(C(F)(F)F)C(F)(F)F`, for which the TGI came to 41 µM.

Consider `CC(C)(C)[Si](C)(C)OC1/C(=C/C#N)C(n2ccc(=O)[nH]c2=O)OC1CO` (centres undefined), for which the TGI is > 100 µM.

As to `CC(=O)Nc1ccc2cc(C)c(=O)[nH]c2n1`, the TGI was > 100 µM.

On to `Nc1nc2c(ncn2Cc2ccc(CO)cc2)c(=O)[nH]1`, for which the TGI is > 100 µM.

`O=C(NS(=O)(=O)OCC(Cl)(Cl)Cl)SCCC(F)(F)C(F)(F)C(F)(F)C(F)(F)C(F)(F)C(F)(F)F` yielded a TGI of 38.9 µM.
